The values below are quoted from earlier work in patent publication US12004545B2, “Infant nutrition delivering metabolic benefits” (SOCIÉTÉ DES PRODUITS NESTLÉ S.A., priority 2016, dated 2024).

For the data set the following is noted: value used in the GL calculation.

Regarding `OC[C@H]1O[C@@H](O[C@H]2[C@H](O)[C@@H](O)C(O)O[C@@H]2CO)[C@H](O)[C@@H](O)[C@H]1O` (some centres unmarked) [lactose], the “GI of ingredient (available CHO)” value was 46.
Turning to `OC[C@H]1O[C@@](CO)(O[C@H]2O[C@H](CO)[C@@H](O)[C@H](O)[C@H]2O)[C@@H](O)[C@@H]1O` [sucrose], the “GI of ingredient (available CHO)” value is given as 68.
